What was measured:
[1] = tested on: Miapaca2 pancreatic cancer cell line; test: CellTiter-Blue cell viability assay, Miapaca2; format: cell-based; conditions: Homo sapiens, MIA PaCa-2; Miapaca1 cell line as printed; 96 hours treatment
Description: (§1) The in vitro anti-tumor activity of levormeloxifene or its pharmaceutically acceptable salt was evaluated in six human pancreatic cancer cell lines: AsPc 1 (A), BxPC3 (B), Miapaca2 (C), Panc 10.05 (D), SW1990 (E) and Panc 1 (F). AsPc 1 (A), BxPC3 (B), Miapaca2 (C), Panc 10.05 (D), SW1990 (E) and Panc 1 (F) were established at Oncotest from the corresponding human patient derived xenograft. CAPAN-2, HUP-T3 and PA-TU-8902 were purchased from DSMZ (Braunschweig, Germany). PANC-1 was purchased from CLS Cell Line Services GmbH (Eppelheim, Germany). BxPC-3, HPAC and MIA-Pa-Ca-2 were purchased from ATCC (Rockville, Md., USA). Authenticity of cell lines was confirmed at the DSMZ by STR (short tandem repeat) analysis, a PCR based DNA-fingerprinting methodology. Cell lines were routinely passaged once or twice weekly and maintained in culture for up to 20 passages. […] Briefly, cells were harvested from exponential phase cultures, counted and plated in 96-well flat-bottom microtiter plates at a cell density of 6,000-20,000 cells/well depending on the cell line's growth rate. […] Following an incubation period of up to four hours, fluorescence (FU) was measured by using the Enspire Multimode Plate Reader (excitation λ=531 nm, emission λ=615 nm). […]

[2] = tested on: Panc 10.05 pancreatic cancer cell line; test: CellTiter-Blue cell viability assay, Panc10.05; format: cell-based; conditions: Homo sapiens, Panc1005; Panc10.05 cell line; 96 hours treatment
Description: as §1

[3] = tested on: Panc 1 pancreatic cancer cell line; test: CellTiter-Blue cell viability assay, Panc1; format: cell-based; conditions: Homo sapiens, 96 hours treatment
Description: as §1

[4] = tested on: BxPC3 pancreatic cancer cell line; test: CellTiter-Blue cell viability assay, BxPC3; format: cell-based; conditions: Homo sapiens, BXPC-3, 96 hours treatment
Description: as §1

[5] = tested on: AsPc 1 pancreatic cancer cell line; test: CellTiter-Blue cell viability assay, AsPC1; format: cell-based; conditions: Homo sapiens, 96 hours treatment
Description: as §1

[6] = tested on: SW1990 pancreatic cancer cell line; test: CellTiter-Blue cell viability assay, SW1990; format: cell-based; conditions: Homo sapiens, 96 hours treatment
Description: as §1

HPAC cell line = test: CellTiter-Blue cell viability assay, HPAC; format: cell-based; conditions: Homo sapiens, most resistant cell line, read-out: individual IC50
Excerpt: as §1, with “AsPc” for “The in vitro anti-tumor activity of levormeloxifene or its pharmaceutically acceptable salt was evaluated in six human pancreatic cancer cell lines: AsPc 1 (A), BxPC3 (B), Miapaca2 (C), Panc 10.05 (D), SW1990 (E) and Panc 1 (F). AsPc”, “passages. All cells were grown at 37° C. in a humidified atmosphere with 5% CO2 in RPMI 1640 medium (25 mM HEPES, with L-glutamine, #FG1385, Biochrom, Berlin, Germany) supplemented with 10% (v/v) fetal calf serum (Sigma, Taufkirchen, Germany) and 0.1 mg/mL gentamicin (Life Technologies, Karlsruhe, Germany).” for “passages.”

PA-TU-8902 cell line = test: CellTiter-Blue cell viability assay, PA-TU-8902; format: cell-based; conditions: Homo sapiens, PaTu 8902; PA-TU-8902, text value; read-out: individual IC50
Excerpt: as §1, with “AsPc” for “The in vitro anti-tumor activity of levormeloxifene or its pharmaceutically acceptable salt was evaluated in six human pancreatic cancer cell lines: AsPc 1 (A), BxPC3 (B), Miapaca2 (C), Panc 10.05 (D), SW1990 (E) and Panc 1 (F). AsPc”, “passages. All cells were grown at 37° C. in a humidified atmosphere with 5% CO2 in RPMI 1640 medium (25 mM HEPES, with L-glutamine, #FG1385, Biochrom, Berlin, Germany) supplemented with 10% (v/v) fetal calf serum (Sigma, Taufkirchen, Germany) and 0.1 mg/mL gentamicin (Life Technologies, Karlsruhe, Germany).” for “passages.”

[7] = tested on: human pancreatic cancer cell lines; test: CellTiter-Blue cell viability assay, panel of pancreatic cancer cell lines; format: cell-based
Description: The in vitro anti-tumor activity of levormeloxifene or its pharmaceutically acceptable salt was evaluated in six human pancreatic cancer cell lines: AsPc 1 (A), BxPC3 (B), Miapaca2 (C), Panc 10.05 (D), SW1990 (E) and Panc 1 (F).
AsPc 1 (A), BxPC3 (B), Miapaca2 (C), Panc 10.05 (D), SW1990 (E) and Panc 1 (F) were established at Oncotest from the corresponding human patient derived xenograft. CAPAN-2, HUP-T3 and PA-TU-8902 were purchased from DSMZ (Braunschweig, Germany). PANC-1 was purchased from CLS Cell Line Services GmbH (Eppelheim, Germany). BxPC-3, HPAC and MIA-Pa-Ca-2 were purchased from ATCC (Rockville, Md., USA). Authenticity of cell lines was confirmed at the DSMZ by STR (short tandem repeat) analysis, a PCR based DNA-fingerprinting methodology. Cell lines were routinely passaged once or twice weekly and maintained in culture for up to 20 passages. […]
The CellTiter-Blue® Cell Viability Assay (#G8081, Promega) was used according to manufacturer's instructions. Briefly, cells were harvested from exponential phase cultures, counted and plated in 96-well flat-bottom microtiter plates at a cell density of 6,000-20,000 cells/well depending on the cell line's growth rate. […] Following an incubation period of up to four hours, fluorescence (FU) was measured by using the Enspire Multimode Plate Reader (excitation λ=531 nm, emission λ=615 nm). […]

estrogen receptor = conditions: according to literature; cited from earlier work
[8] = used as oral contraceptive; cited from earlier work

COc1ccc2c(c1)OC(C)(C)[C@@H](c1ccccc1)[C@@H]2c1ccc(OCCN2CCCC2)cc1 [levormeloxifene, (−)-3,4-trans-7-methoxy-2,2-dimethyl-3-phenyl-4-[4-[2-(pyrrolidin-1-yl)ethoxy]phenyl]chromane]
IC50 [1]: 22 µM
IC50 [2]: 24 µM
IC50 [3]: 24 µM
IC50 [4]: 21 µM
IC50 [5]: 18 µM
IC50 [6]: 27 µM
IC50 (HPAC cell line): 5350 µM
IC50 (PA-TU-8902 cell line): 1030 µM
difference between the most sensitive and most resistant cell line ([7]; HUP-T3 vs HPAC IC50): 7.4 fold
activity in all cell lines tested (concentration-effect curves) ([7]; sigmoidal concentration-effect curves): concentration-dependent activity
receptor affinity relative to the D-isomer (estrogen receptor): about 7 times

COc1ccc2c(c1)OC(C)(C)C(c1ccccc1)C2c1ccc(OCCN2CCCC2)cc1 (stereo not drawn) [Centchroman, ormeloxifene]
half-life [8]: about 168 hours
